Assay [1] relates to HCT-116. Nature of the assay: Cytotoxicity against human HCT116 cells after 120 hrs by hemocytometer. In kind it is functional, cell-based. The conditions noted are these: HCT-116, 120 h.
For assay [2], the system named is KB. As to the kind of experiment: Cytotoxicity against human KB cells. In kind it is functional, cell-based.

SMILES strings stand for the structures.

For orientation: IC50 means the point on the concentration scale where inhibition reaches its midpoint. Low values mean inhibition by little substance, high ones a need for much substance.

As to `CC[C@H](C)[C@@H](NC(=O)[C@H](CCC(N)=O)N(C)C(=O)[C@H](OC(=O)[C@@H](O)C(C)C)C(C)C)C(=O)N[C@@H](C)C(=O)N(C)[C@H](Cc1ccccc1)C(=O)N1CCC[C@H]1C(=O)OC`, the IC50 in assay [1] was > 25 µM. Same read-out and setting: then `CC[C@H](C)[C@H](NC(=O)[C@H](CCC(N)=O)N(C)C(=O)[C@H](OC(=O)[C@@H](O)C(C)C)C(C)C)C(=O)N[C@@H](C)C(=O)N[C@H](Cc1ccccc1)C(=O)N1CCC[C@H]1C(=O)OC`, with 25 µM.

In turn, `CC[C@H](C)[C@H](O)C(=O)N[C@@H](CC(C)C)C(=O)N(C)[C@@H](CCC(N)=O)C(=O)N[C@H](C(=O)NCC(=O)N(C)[C@H](Cc1ccccc1)C(=O)N1CCC[C@H]1C(=O)OC)[C@@H](C)CC` [TASIAMIDE] came in with a half-maximal inhibitory concentration (IC50) in assay [2] of 0.48 µM.

These data come from ChEMBL document CHEMBL3232787, “Lipopeptides from the tropical marine cyanobacterium Symploca sp” (J Nat Prod, 2014).
